Assay results published in article PMC11571207, “Stereorandomized Oncocins with Preserved Ribosome Binding and Antibacterial Activity” (Journal of Medicinal Chemistry, 2024).
Converted amounts (≈) assume the structure as drawn. Read-outs that look alike come from different tables or passages of the source. No end group written: not given here.

What was measured:
[1] = tested on: A. baumannii ATCC19606; test: microbe, parasite or virus in culture; settings: for MIC A. baumannii, 12.5% MHB / MIC A. baumannii, Full MHB: A. baumannii ATCC19606; for MIC A. baumannii ATCC19606: supplement CSV; for MIC: Acinetobacter baumannii
Outline: (§1)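 Read-out was visible growth after MTT addition, the MIC being the lowest inhibitory peptide concentration. Bacteria grown to log phase in LB were exposed in MH medium to peptide from 64 μg/mL in twofold dilutions for 15-18h at 37°C.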

[2] = tested on: K. pneumoniae NCTC 418; test: microbe, parasite or virus in culture; settings: for MIC K. pneumoniae, 12.5% MHB / MIC K. pneumoniae, Full MHB: K. pneumoniae NCTC 418; for MIC K. pneumoniae NCTC418: supplement CSV; for MIC: Klebsiella pneumoniae
Outline: as §1

[3] = tested on: P. aeruginosa PAO1; test: microbe, parasite or virus in culture; settings: for MIC P. aeruginosa, 12.5% MHB / MIC P. aeruginosa, Full MHB: P. aeruginosa PAO1, 16–20 h at 37 °C; for MIC P. aeruginosa, 12.5% MHB: 12.5% Müller–Hinton medium; for MIC P. aeruginosa, Full MHB: full Müller–Hinton medium; for MIC P. aeruginosa PAO1: supplement CSV; for MIC: Pseudomonas aeruginosa
Outline: as §1

[4] = tested on: S. aureus COL (MRSA); test: microbe, parasite or virus in culture; settings: for MIC S. aureus, 12.5% MHB / MIC S. aureus, Full MHB: S. aureus COL (MRSA), 16–20 h at 37 °C; for MIC S. aureus, 12.5% MHB: 12.5% Müller–Hinton medium; for MIC S. aureus, Full MHB: full Müller–Hinton medium; for MIC S. aureus COL (MRSA): supplement CSV; for MIC: Staphylococcus aureus, MRSA
Outline: as §1

[5] = tested on: E. coli W3110; test: microbe, parasite or virus in culture; settings: for MIC E. coli, 12.5% MHB / MIC E. coli, Full MHB: E. coli W3110; for MIC E. coli W3110: supplement CSV; for MIC: Escherichia coli
Outline: as §1

[6] = tested on: P. aeruginosa PA14 4.18 (pmrB); settings: for MIC P. aeruginosa PA14 4.18 (pmrB), 12.5% MHB / MIC P. aeruginosa PA14 4.18 (pmrB), full MHB: polymyxin B resistant strain, 16–20 h at 37 °C; for MIC P. aeruginosa PA14 4.18 (pmrB), 12.5% MHB: 12.5% MHB pH 7.4; for MIC P. aeruginosa PA14 4.18 (pmrB), full MHB: full MHB pH 7.4; for MIC P. aeruginosa PA14 4.18: supplement CSV
[7] = tested on: E. coli ribosome, U2506 of the 23S rRNA; test: Ribosome footprinting (CMCT modification of U2506); type: binding; settings: 1 μM peptide, 10.5 μM CMCT, purified E. coli ribosomes (5 pmol), 25 °C; primer extension, sequencing gel
Description: A 5 mL culture of E. coli MG1655 (WT-cells) was grown in LB overnight (220 rpm, 37 °C). One liter LB medium was inoculated, and bacteria were grown to OD = 0.6 (220 rpm. 37 °C); cells were centrifuged in centrifuge bottles, and the pellet was resuspended in ice-cold water and transferred in 50 mL falcon tubes. Falcon tubes were centrifuged, the supernatant was removed, the pellet was resuspended in 15 mL polysome buffer (TRIS/HCl pH 7.5 20 mM, NH4Cl 100 mM, MgCl2 10 mM, EDTA 0.5 mM, β-mercaptoethanol 60 mM), frozen dropwise in N2 (l), and stored at −80 °C. The cells were ground in CryoMil with the standard program (1 min precooling, 2 min grinding 5/s, 2 min cooling, 2 min grinding 5/s). The powder was transferred in 50 mL falcon tubes containing N2 (l) and stored at −80 °C. The lysates were thawed with a water bath (30 °C), put on ice, transferred to precooled Eppendorf tubes, and centrifuged (5000 g, 2 min, 4 °C). The clear lysate was transferred to new precooled tubes, centrifuged (14 000 g, 10 min, 4 °C), and the supernatant was transferred to new precooled tubes. 300 mL of clear lysate was loaded on a 10–50% sucrose gradient in CMCT buffer (K-borate buffer pH 8 80 mM, MgCl2 25 mM, NH4Cl 100 mM) and ultracentrifuged (3 h, 234 050 g, 4 °C). The fractions containing monosomes and polysomes were collected and ultracentrifuged overnight (16 h, 260 800 g, 4 °C). The supernatant was discarded, and the pellet was washed with ice-cold CMCT buffer. The ribosomes were resuspended in 100 μL CMCT buffer with a mini magnetic stirring bar and stored on ice. The concentration of ribosomes was measured in 1/200 dilution in water.
Ribosomes (5 pmol) were mixed with 8 μL of CMCT buffer, the compound of interest 1 μM, and water to a final volume of 20 μL in a precooled tube and incubated at 25 °C for 10 min. 20 μL of CMCT (10.5 μM) in water was added and incubated at 25 °C for 30 min. The reaction was stopped with 160 μL of EDTA (30 μM), and the samples were stored on ice.
160 μL portion of RNA resuspension buffer and 40 μL of 10% SDS were added, and the samples were vigorously resuspended. 400 μL of prewarmed acid phenol was added, and the samples were incubated on a thermomixer (5 min, 1200 rpm, 65 °C). The samples were put on ice for 5 min and centrifuged (5 min, 14 000 g, RT). The watery phase was transferred to a new precooled tube, 400 μL of phenol–chloroform–isoamyl alcohol (4 °C) was added, and the samples were mixed (5 min, 1200 rpm, RT). The samples were centrifuged again (5 min, 14 000g, RT), and the watery phase was transferred to another precooled tube. 34 μL of 3 M NaOAc pH 5.5, 0.8 μL of Glycoblue and 400 μL of isopropanol were added, and the samples were incubated for 3 h at −80 °C. The samples were then centrifuged (40 min, 21 000g, 4 °C), and the pellet was washed with ice-cold 70% EtOH. The residual liquid was removed, and the samples were dried (5 min, 37 °C). The samples were resuspended in 20 μL of water, the concentration was measured, and the samples were −80 °C.
Primers designed to probe the positions 2506 of the 23S rRNA (5-[sequence]-3′) were labeled with radioactive phosphate (γ^32 P-ATP). […] To prepare primers for one reaction, 1 μL of primer (0.3 μM), 0.4 μL of 5× PNK-buffer, 0.25 μL of water, 0.2 μL of γ^32 P-ATP, and 0.15 μL of T4 PNK were mixed and incubated at 37 °C.

[8] = tested on: K. pneumoniae NCTC418; test: Time-killing kinetic assay, K. pneumoniae; type: cell-based, Klebsiella pneumoniae; settings: 8× MIC, full MHB pH 7.4, 0-6 h, n = 6
Description: (§2) Time-Killing Kinetic Assay
(§3) Single colonies of E. coli W3110 and K. pneumoniae NCTC418 were picked and grown overnight with shaking (180 rpm) in LB (Sigma-Aldrich, Buchs, Switzerland) medium 5 mL overnight at 37 °C. The overnight bacterial cultures were diluted to OD600 = 0.002 (2 × 10^6 CFU/mL) in fresh MHB medium. Stock solutions of AMPs in sterilized milliQ water were prepared in 1 mg/mL and were diluted to two times more than required concentration in fresh MHB (Sigma- Aldrich, Buchs, Switzerland) medium at pH 7.4. 100 μL of prepared bacteria solution in MHB and 100 μL of samples in MHB were mixed in a 96-well microtiter plate (TPP, untreated, Corning Incorporated, Kennebunk, USA). Untreated bacteria at 1 × 10^6 CFU/mL were used as a growth control. 96-well microtiter plates were incubated in 37 °C with shaking (180 rpm). Surviving bacteria were quantified at 0, 0.5, 1, 2, 4 and 6 h by plating 10 -fold dilutions of the sample in sterilized normal saline on LB agar plates. LB agar plates were incubated at 37 °C for 10 h, and the number of individual colonies was counted at each time point. The assay was performed in triplicate in a biosafety level 2 lab. […]

[9] = tested on: E. coli W3110; test: Time-killing kinetic assay, E. coli; type: cell-based, Escherichia coli; settings: 8× MIC, full MHB pH 7.4, 0-6 h, n = 6
Description: as §2, §3

[10] = 12.5% Müller–Hinton medium, 16–20 h at 37 °C
[11] = full Müller–Hinton medium, 16–20 h at 37 °C
[12] = 12.5% Müller–Hinton medium, 16–20 h at 37 °C, broth microdilution
[13] = full Müller–Hinton medium, 16–20 h at 37 °C, broth microdilution

Row | Compound | MIC A. baumannii, 12.5% MHB [1, 10] | MIC A. baumannii, Full MHB [1, 11] | MIC A. baumannii ATCC19606 ([1]; 12.5% MH pH 7.4) | MIC A. baumannii ATCC19606 ([1]; full MH pH 7.4) | MIC K. pneumoniae, 12.5% MHB [2, 10] | MIC K. pneumoniae, Full MHB [2, 11] | MIC K. pneumoniae NCTC418 ([2]; 12.5% MH pH 7.4) | MIC K. pneumoniae NCTC418 ([2]; full MH pH 7.4) | MIC P. aeruginosa, 12.5% MHB [3] | MIC P. aeruginosa, Full MHB [3] | MIC P. aeruginosa PAO1 ([3]; 12.5% MH pH 7.4) | MIC P. aeruginosa PAO1 ([3]; full MH pH 7.4) | MIC S. aureus, 12.5% MHB [4] | MIC S. aureus, Full MHB [4] | MIC S. aureus COL (MRSA) ([4]; 12.5% MH pH 7.4) | MIC S. aureus COL (MRSA) ([4]; full MH pH 7.4) | MIC E. coli, 12.5% MHB [5, 12] | MIC E. coli, Full MHB [5, 13] | MIC E. coli W3110 ([5]; 12.5% MH pH 7.4) | MIC P. aeruginosa PA14 4.18 ([6]; full MH pH 7.4) | other results
1 | VDKPPYLPRPRPPRRIYNR [sr-Onc] (VDKPPYLPRPRPPRRIYNR-NH2; also: all 19 residues stereorandomized (1:1 L/D mixture)) [fully stereorandomized oncocin] | 8 µg/mL | 32 µg/mL | 8 µg/mL | 32 µg/mL | > 16 µg/mL | > 64 µg/mL | >16 µg/mL | >64 µg/mL | 8 µg/mL | > 64 µg/mL | 8 µg/mL | >64 µg/mL | >64 / >64 μg/mL | >64 / >64 μg/mL | >64 µg/mL | >64 µg/mL | 8 µg/mL | 32 µg/mL | 8 µg/mL | >64 µg/mL | MIC E. coli W3110 ([5]; full MH pH 7.4): 32 µg/mL; MIC P. aeruginosa PA14 4.18 (pmrB), 12.5% MHB [6]: 32 µg/mL; MIC P. aeruginosa PA14 4.18 (pmrB), full MHB [6]: > 64 µg/mL; MIC P. aeruginosa PA14 4.18 ([6]; 12.5% MH pH 7.4): 32 µg/mL; Protection of U2506 of 23S rRNA from CMCT modification (band at C2507) [7]: did not protect U2506 from CMCT modification
2 | VDKPPYLPRPRPPRRIYNR [sr5Cterm-Onc] (VDKPPYLPRPRPPRRIYNR-NH2; also: residues 15-19 stereorandomized (1:1 L/D mixture)) [oncocin with the five C-terminal residues stereorandomized] | 4 µg/mL | 32 µg/mL | 4 µg/mL | 32 µg/mL | 2 / 2 μg/mL | 2 / 2 μg/mL | 2 µg/mL | 2 µg/mL | 8 µg/mL | 64 µg/mL | 8 µg/mL | 64 µg/mL | > 16 µg/mL | > 64 µg/mL | >16 µg/mL | >64 µg/mL | 2 µg/mL | 4 µg/mL | 2 µg/mL | 64 µg/mL | MIC E. coli W3110 ([5]; full MH pH 7.4): 4 µg/mL; MIC P. aeruginosa PA14 4.18 (pmrB), 12.5% MHB [6]: 8 µg/mL; MIC P. aeruginosa PA14 4.18 (pmrB), full MHB [6]: 64 µg/mL; MIC P. aeruginosa PA14 4.18 ([6]; 12.5% MH pH 7.4): 8 µg/mL; Killing profile against K. pneumoniae [8]: comparable kinetics to L-Onc; Killing profile against E. coli [9]: comparable kinetics to L-Onc; Protection of U2506 of 23S rRNA from CMCT modification (band at C2507) [7]: protected from CMCT modification
3 | CC[C@H]1OC(=O)[C@H](C)[C@@H](O[C@H]2C[C@@](C)(OC)[C@@H](O)[C@H](C)O2)[C@H](C)[C@@H](O[C@@H]2O[C@H](C)C[C@H](N(C)C)[C@H]2O)[C@](C)(O)C[C@@H](C)CN(C)[C@H](C)[C@@H](O)[C@]1(C)O [AZM, azithromycin, reference compound] |  |  |  |  |  |  |  |  |  |  |  | 32 µg/mL (≈ 42.7 µM) |  |  | <0.5 µg/mL |  |  |  |  | 32 µg/mL (≈ 42.7 µM) | MIC ([1]; ATCC19606, pH 7.4, read-out: MIC A. baumannii ATCC19606, supplement CSV, 12.5% MH pH 7.4): 32 µg/mL (≈ 42.7 µM); MIC ([1]; ATCC19606, pH 7.4, read-out: MIC A. baumannii ATCC19606, supplement CSV, full MH pH 7.4): 4 µg/mL (≈ 5.34 µM); MIC ([1]; ATCC19606, read-out: MIC A. baumannii, 12.5% MHB, A. baumannii ATCC19606, 12.5% Müller–Hinton medium, 16–20 h at 37 °C): 32 µg/mL (≈ 42.7 µM); MIC ([1]; ATCC19606, read-out: MIC A. baumannii, Full MHB, A. baumannii ATCC19606, full Müller–Hinton medium, 16–20 h at 37 °C): 4 µg/mL (≈ 5.34 µM); MIC ([2]; NCTC418, pH 7.4, read-out: MIC K. pneumoniae NCTC418, supplement CSV, 12.5% MH pH 7.4): 1 µg/mL (≈ 1.34 µM); MIC ([2]; NCTC418, pH 7.4, read-out: MIC K. pneumoniae NCTC418, supplement CSV, full MH pH 7.4): < 0.5 µg/mL; MIC ([2]; NCTC418, read-out: MIC K. pneumoniae, 12.5% MHB, K. pneumoniae NCTC 418, 12.5% Müller–Hinton medium, 16–20 h at 37 °C): 1 µg/mL (≈ 1.34 µM); MIC ([2]; NCTC418, read-out: MIC K. pneumoniae, Full MHB, K. pneumoniae NCTC 418, full Müller–Hinton medium, 16–20 h at 37 °C): < 0.5 µg/mL; MIC ([3]; PAO1, pH 7.4, read-out: MIC P. aeruginosa PAO1): 32 µg/mL (≈ 42.7 µM); MIC ([3]; PAO1, read-out: MIC P. aeruginosa, 12.5% MHB): 32 µg/mL (≈ 42.7 µM); MIC ([3]; PAO1, read-out: MIC P. aeruginosa, Full MHB): 32 µg/mL (≈ 42.7 µM); MIC ([4]; pH 7.4, read-out: MIC S. aureus COL (MRSA)): < 0.5 µg/mL; MIC ([4]; read-out: MIC S. aureus, 12.5% MHB): < 0.5 µg/mL; MIC ([4]; read-out: MIC S. aureus, Full MHB): < 0.5 µg/mL; MIC ([5]; W3110, pH 7.4, read-out: MIC E. coli W3110, supplement CSV, 12.5% MH pH 7.4): 2 µg/mL (≈ 2.67 µM); MIC ([5]; W3110, pH 7.4, read-out: MIC E. coli W3110, supplement CSV, full MH pH 7.4): < 0.5 µg/mL; MIC ([5]; W3110, read-out: MIC E. coli, 12.5% MHB, E. coli W3110, 12.5% Müller–Hinton medium, 16–20 h at 37 °C, broth microdilution): 2 µg/mL (≈ 2.67 µM); MIC ([5]; W3110, read-out: MIC E. coli, Full MHB, E. coli W3110, full Müller–Hinton medium, 16–20 h at 37 °C, broth microdilution): < 0.5 µg/mL; Killing profile against K. pneumoniae [8]: acted bacteriostatically; Killing profile against E. coli [9]: acted bacteriostatically
4 | VDKPPYLPRPRPPRRIYNR [sr14Nterm-Onc] (VDKPPYLPRPRPPRRIYNR-NH2; also: residues 1-14 stereorandomized (1:1 L/D mixture)) [oncocin with the essential 14-residue N-terminus stereorandomized] | 16 µg/mL | 64 µg/mL | 16 µg/mL | 64 µg/mL | > 16 µg/mL | > 64 µg/mL | >16 µg/mL | >64 µg/mL | > 16 µg/mL | > 64 µg/mL | >16 µg/mL | >64 µg/mL | >64 / >64 μg/mL | >64 / >64 μg/mL | >64 µg/mL | >64 µg/mL | 4 µg/mL | 64 µg/mL | 4 µg/mL | >64 µg/mL | MIC E. coli W3110 ([5]; full MH pH 7.4): 64 µg/mL; MIC P. aeruginosa PA14 4.18 (pmrB), 12.5% MHB [6]: 32 µg/mL; MIC P. aeruginosa PA14 4.18 (pmrB), full MHB [6]: > 64 µg/mL; MIC P. aeruginosa PA14 4.18 ([6]; 12.5% MH pH 7.4): 32 µg/mL; Protection of U2506 of 23S rRNA from CMCT modification (band at C2507) [7]: did not protect U2506 from CMCT modification
